Data reported in publication PMC10945555, “Improving Activity of New Arylurea Agents against Multidrug-Resistant and Biofilm-Producing Staphylococcus epidermidis” (ACS Medicinal Chemistry Letters, 2024).
Like-named read-outs stand apart in the source and are kept apart here.

Legend:
Format in all cases: cell-based
[1] = tested on: clinical MDR Staphylococcus epidermidis isolates; experiment: MIC, broth microdilution, 81 clinical MDR strains; conditions: Staphylococcus epidermidis
Summary of the method: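 MICs were determined by twofold broth microdilution in cation-adjusted Mueller-Hinton II broth per EUCAST, over 50–0.1 µg/mL, in duplicate. Compounds were tested as free bases dissolved in DMSO; MIC50 and MIC90 were derived across the 81 clinical MDR S. epidermidis strains.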

[2] = tested on: Staphylococcus epidermidis ATCC 12228; experiment: MIC, broth microdilution, MSSE reference strain; conditions: ATCC12228, Staphylococcus epidermidis ATCC 12228, read-out: MIC MSSE
Summary of the method: (§1)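 Compounds tested as free bases dissolved in DMSO (1 mg/mL stock); determinations done twice; linezolid as positive control.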

[3] = tested on: Staphylococcus aureus ATCC BAA-976; experiment: MIC, broth microdilution, MDR/BPSA reference strain; conditions: ATCCBAA976; Staphylococcus aureus ATCC BAA-976; read-out: MIC MDR/BPSA
Summary of the method: as §1

[4] = tested on: Staphylococcus epidermidis ATCC 35984; experiment: MIC, broth microdilution, MDR/BPSE reference strain
Summary of the method: as §1

O=S(=O)(NC1CCN(CCC(Oc2ccc(C(F)(F)F)cc2)c2ccccc2)CC1)c1cccc(Cl)c1 (stereo not shown) [Compound 12]
12.5 µg/mL: MIC ([1]; clinical strain 22 (Table S2), read-out: MIC) | MIC ([1]; clinical strain 23 (Table S2), read-out: MIC) | MIC ([1]; clinical strain 24 (Table S2), read-out: MIC) | MIC ([1]; clinical strain 25 (Table S2), read-out: MIC) | MIC ([1]; clinical strain 26 (Table S2), read-out: MIC) | MIC ([1]; clinical strain 28 (Table S2), read-out: MIC) | MIC ([1]; clinical strain 29 (Table S2), read-out: MIC) | MIC ([1]; clinical strain 41 (Table S2), read-out: MIC) | MIC ([1]; clinical strain 80 (Table S2), read-out: MIC)
0.1 µg/mL: MIC ([1]; clinical strain 49 (Table S2), read-out: MIC)
20.4 µg/mL: MIC ([1]; mean of MIC values against clinical MDR-SE isolates, read-out: mean MIC)
25 µg/mL: MIC ([1]; clinical strain 27 (Table S2), read-out: MIC) | MIC ([1]; clinical strain 30 (Table S2), read-out: MIC) | MIC ([1]; clinical strain 33 (Table S2), read-out: MIC) | MIC ([1]; clinical strain 43 (Table S2), read-out: MIC)
0.2 µg/mL: MIC ([1]; clinical strain 1 (Table S2), read-out: MIC)
≤ 0.8 µg/mL: MIC ([4]; Staphylococcus epidermidis, ATCC35984, read-out: MIC MDR/BPSE, Staphylococcus epidermidis ATCC 35984)
1.6 µg/mL: MIC ([1]; clinical strain 2 (Table S2), read-out: MIC) | MIC ([1]; clinical strain 5 (Table S2), read-out: MIC) | MIC ([1]; clinical strain 8 (Table S2), read-out: MIC) | MIC ([1]; clinical strain 63 (Table S2), read-out: MIC) | MIC ([1]; clinical strain 69 (Table S2), read-out: MIC)
50 µg/mL: MIC ([1]; clinical strain 14 (Table S2), read-out: MIC) | MIC ([1]; clinical strain 31 (Table S2), read-out: MIC) | MIC ([1]; clinical strain 32 (Table S2), read-out: MIC) | MIC ([1]; clinical strain 34 (Table S2), read-out: MIC) | MIC ([1]; clinical strain 35 (Table S2), read-out: MIC) | MIC ([1]; clinical strain 36 (Table S2), read-out: MIC) | MIC ([1]; clinical strain 37 (Table S2), read-out: MIC) | MIC ([1]; clinical strain 38 (Table S2), read-out: MIC) | MIC ([1]; clinical strain 39 (Table S2), read-out: MIC) | MIC ([1]; clinical strain 40 (Table S2), read-out: MIC) | MIC ([1]; clinical strain 42 (Table S2), read-out: MIC) | MIC ([1]; clinical strain 44 (Table S2), read-out: MIC) | MIC ([1]; clinical strain 45 (Table S2), read-out: MIC) | MIC ([1]; clinical strain 46 (Table S2), read-out: MIC) | MIC ([1]; clinical strain 47 (Table S2), read-out: MIC) | MIC ([1]; clinical strain 50 (Table S2), read-out: MIC) | MIC ([1]; clinical strain 51 (Table S2), read-out: MIC) | MIC ([1]; clinical strain 54 (Table S2), read-out: MIC) | MIC ([1]; clinical strain 57 (Table S2), read-out: MIC) | MIC ([1]; clinical strain 59 (Table S2), read-out: MIC) | MIC ([1]; clinical strain 61 (Table S2), read-out: MIC) | MIC ([1]; clinical strain 66 (Table S2), read-out: MIC) | MIC ([1]; clinical strain 67 (Table S2), read-out: MIC) | MIC ([1]; clinical strain 68 (Table S2), read-out: MIC) | MIC ([1]; clinical strain 70 (Table S2), read-out: MIC) | MIC ([1]; clinical strain 71 (Table S2), read-out: MIC) | MIC ([1]; clinical strain 74 (Table S2), read-out: MIC) | MIC90 ([1]; 81 clinical strains, concentration inhibiting growth of 90% of clinical isolates) | MIC [3]
up to 8 fold: increase of activity against MDR/BPSE compared to hit I [4]
≤ 6.25 µg/mL: MIC [2]
6.25 µg/mL: MIC ([1]; clinical strain 7 (Table S2), read-out: MIC) | MIC ([1]; clinical strain 10 (Table S2), read-out: MIC) | MIC ([1]; clinical strain 11 (Table S2), read-out: MIC) | MIC ([1]; clinical strain 12 (Table S2), read-out: MIC) | MIC ([1]; clinical strain 13 (Table S2), read-out: MIC) | MIC ([1]; clinical strain 20 (Table S2), read-out: MIC) | MIC ([1]; clinical strain 21 (Table S2), read-out: MIC) | MIC ([1]; clinical strain 53 (Table S2), read-out: MIC) | MIC ([1]; clinical strain 55 (Table S2), read-out: MIC) | MIC ([1]; clinical strain 62 (Table S2), read-out: MIC) | MIC ([1]; clinical strain 75 (Table S2), read-out: MIC) | MIC ([1]; clinical strain 78 (Table S2), read-out: MIC) | MIC ([1]; clinical strain 81 (Table S2), read-out: MIC) | MIC50 ([1]; 81 clinical strains, concentration inhibiting growth of 50% clinical isolates)
0.8 µg/mL: MIC ([1]; clinical strain 3 (Table S2), read-out: MIC) | MIC ([1]; clinical strain 4 (Table S2), read-out: MIC) | MIC ([1]; clinical strain 73 (Table S2), read-out: MIC) | MIC ([1]; clinical strain 76 (Table S2), read-out: MIC)
3.12 µg/mL: MIC ([1]; clinical strain 6 (Table S2), read-out: MIC) | MIC ([1]; clinical strain 9 (Table S2), read-out: MIC) | MIC ([1]; clinical strain 15 (Table S2), read-out: MIC) | MIC ([1]; clinical strain 16 (Table S2), read-out: MIC) | MIC ([1]; clinical strain 17 (Table S2), read-out: MIC) | MIC ([1]; clinical strain 18 (Table S2), read-out: MIC) | MIC ([1]; clinical strain 19 (Table S2), read-out: MIC) | MIC ([1]; clinical strain 48 (Table S2), read-out: MIC) | MIC ([1]; clinical strain 52 (Table S2), read-out: MIC) | MIC ([1]; clinical strain 56 (Table S2), read-out: MIC) | MIC ([1]; clinical strain 58 (Table S2), read-out: MIC) | MIC ([1]; clinical strain 60 (Table S2), read-out: MIC) | MIC ([1]; clinical strain 64 (Table S2), read-out: MIC) | MIC ([1]; clinical strain 65 (Table S2), read-out: MIC) | MIC ([1]; clinical strain 72 (Table S2), read-out: MIC) | MIC ([1]; clinical strain 77 (Table S2), read-out: MIC) | MIC ([1]; clinical strain 79 (Table S2), read-out: MIC)
